In US5776962A, “Lactone compounds for treating patient with precancerous lesions” (priority 1995, dated 1998):
Entries after “also recorded” stand apart in the source; their conditions may differ. Where two headings read alike, the source gives them in different places. Blank lines part the entries; values can stand above or below the compound they belong to.

Experiments:
[1] = test system: HT-29 human colonic adenocarcinoma cells; assay: Sulforhodamine B Assay, tumor cell growth inhibition, HT-29; format: cell-based; conditions: for SELECTIVITY INDEX (HT-29 IC50 / PGE2 IC50): ratio of HT-29 IC50 to PGE2 IC50
Procedure: The compounds of this invention were assayed for their effect on various cell lines representative of precancerous lesions to ascertain the degree of tumor growth inhibition following treatment with compounds of this invention. The cell lines employed for these experiments were well characterized, and are used by the United States National Cancer Institute in their screening program for new anti-cancer drugs. Growth inhibition of this cell line is thought to be indicative of a benefit on precancerous lesions and neoplasms.
Tumor cell cytotoxicity was assessed using the Sulforhodamine B Assay. In this assay, tumor cells were plated in 96-well plates and treated with drug-containing media for seven days (continuous exposure). At the end of the exposure period, the cells were fixed and stained with sulforhodamine B (a pink fluorescent dye). The dye was then solubilized, and the optical density of the resulting pink solution determined on a 96-well plate reader. The mean dye intensity of the treated wells was then divided by the mean dye intensity in the control wells (6 wells of each) to determine the effect of the drug on the cells. Dye intensity is proportional to the number of cells or amount of protein per well. The resultant "percent of control" value then represents the degree of growth inhibition caused by the drug.
For each experiment, an IC50 value was determined and used for comparative purposes. This value is equivalent to the concentration of drug needed to inhibit tumor cell growth by 50%. IC50 values were obtained graphically by connecting the mean values for each drug concentration tested. Each experiment included at least six wells per drug concentration. Concentration was plotted on a log scale on the X-axis.

[2] = test system: prostaglandin E2 (PGE2) production by differentiated HL-60 cells (anti-PG synthetase activity); assay: Inhibition of prostaglandin E2 (PGE2) production in differentiated HL-60 cells after A23187 stimulation (EIA); format: cell-based, human; conditions: for IC50: Table III, differentiated HL-60, A23187 (5×10^-6 M) stimulation, read-out: (Anti-PG Synthetase activity) PGE2 I.C.50
Procedure: Compounds of this invention, as well as several others (see Table II below), were evaluated to determine whether they inhibited the production of prostaglandin E2 (PGE2), according to the procedure below. […] Secreted […] is measured using an enzyme immunoassay (EIA) kit.
Specifically, HL-60 is a human promyelocytic cell line which may be differentiated in mature granulocytes in the presence of compounds such as dimethyl sulfoxide (DMSO). These cells are obtained from the American Type Culture Collection (ATCC:CCL240).
The differentiated HL-60 cells (3×10^6 cells/ml) are incubated for 15 min at 37° C. in the presence of the compounds listed in Table II at the desired concentration. Cells are then stimulated by A23187 (5×10^-6 M) for 15 min. Secreted PGE2 into the external medium is measured by EIA using a commercially available EIA kit.
The quantity of PGE2 secreted is expressed in ng/10^6 cells using a standard curve. Data are converted using a curve fitting of the four parameter logistic equation: [formula] […] The IC50 values are determined using Hill equation.

prostaglandin synthesis = conditions: background; cited from earlier work
[3] = background; prophylactic use / conventional NSAIDs; cited from earlier work
polyps = conditions: patients; background; cited from earlier work
[4] = background; cited from earlier work
[5] = Homo sapiens, Table II, cell line HT-29, read-out: IC50
[6] = Homo sapiens, Table III, HT-29, read-out: (Anti-proliferative activity) HT-29 I.C.50
[7] = Table II, cell line HT-29, read-out: IC50
[8] = Table III, HT-29, read-out: (Anti-proliferative activity) HT-29 I.C.50

- IC50 [1, 5]: 2.1 µM
Compound: CC12OC(=O)CC1(SC[C@H](N)C(=O)O)c1cc(F)ccc1/C2=C\c1ccc(S(C)(=O)=O)cc1 (mixture of isomers) [Example 32, rac-threo-(E)-1-(butan-1',4'-olido)-[3',4':1,2]-6-fluoro-2-methyl-3-(p-methylsulfonylbenzylidene)-1S-indanyl-L-cysteine]

- IC50 [1, 5]: 30 µM
Compound: CC(=O)N[C@@H](CSC12CC(=O)OC1(C)/C(=C/c1ccc(S(C)(=O)=O)cc1)c1ccc(F)cc12)C(=O)O (mixture of isomers) [Example 33, rac-threo-(E)-1-(butan-1',4'-olido)-[3',4':1,2]-6-fluoro-2-methyl-3-(p-methylsulfonylbenzylidene)-1S-indanyl-N-acetylcysteine]

Compound: CC12OC(=O)C=C1c1cc(F)ccc1/C2=C\c1ccc(S(C)(=O)=O)cc1 (racemic) [Example 3, rac-(E)-1-(2'-Buten-1',4'-olido)-[3',4':1,2]-6-fluoro-2-methyl-3-(p-methylsulfonylbenzylidene)-indan]
- anti-PG-synthetase / anti-prostaglandin activity (in words) [2]: essentially lacking anti-prostaglandin activity at therapeutic concentrations
- anti-proliferative activity (in words) [1]: outstanding anti-proliferative activity

- IC50 ([1]; Homo sapiens, Table II, cell line HT-29 p 135, read-out: IC50): 100 µM
Compound: CC12OC(=O)CC1(O)c1cc(F)ccc1/C2=C\c1ccc(S(C)(=O)=O)cc1 (racemic) [Example 11, rac-threo-(E)-1-Hydroxy-1-(butan-1',4'-olido)-[3',4':1,2]-6-fluoro-2-methyl-3-(p-methylsulfonylbenzylidene)-indan]

- IC50 ([2]; Homo sapiens): > 100 µM
- IC50 [1, 6]: 0.43 µM
Compound: CCN(CC)CCSC12CC(=O)OC1(C)/C(=C/c1ccc(S(C)(=O)=O)cc1)c1ccc(F)cc12 (racemic) [Example 12, rac-threo-(E)-1-(N,N'-diethylaminoethanethio)-1-(butan-1',4'-olido)-[3',4':1,2]-6-fluoro-2-methyl-3-(p-methylsulfonylbenzylidene)-indan]
- SELECTIVITY INDEX (HT-29 IC50 / PGE2 IC50) ([1]; Table III): < 0.0043

- IC50 ([1]; Homo sapiens, Table II, cell line HT-29 p 136 (?), read-out: IC50): > 50 µM
Compound: CC12OC(=O)CC1(C#N)c1cc(F)ccc1/C2=C\c1ccc(S(C)(=O)=O)cc1 (racemic) [Example 13, rac-threo-(E)-1-Cyano-1-(butan-1',4'-olido)-[3',4':1,2]-6-fluoro-2-methyl-3-(p-methylsulfonylbenzylidene)-indan]

- IC50 [1, 5]: 0.34 µM
Compound: CC12OC(=O)C=C1c1cc(F)ccc1/C2=C\c1ccccc1 (racemic) [Example 27, rac-(E)-1-(2'-buten-1',4'-olido)-[3',4':1,2]-6-fluoro-2-methyl-3-benzylidene-indan]

- IC50 [1, 5]: 0.28 µM
Compound: COc1cc(/C=C2\c3ccc(F)cc3C3=CC(=O)OC32C)cc(OC)c1OC (racemic) [Example 28, rac-(E)-1-(2'-buten-1',4'-olido)-[3',4':1,2]-6-fluoro-2-methyl-3-(3,4,5-trimethoxybenzylidene)-indan]

- IC50 ([2]; Homo sapiens): 0.08 µM
- IC50 [1, 5]: 2 µM
- IC50 [1, 6]: 2 µM
Compound: COc1ccc2c(c1)C1=CC(=O)OC1(C)N2C(=O)c1ccc(Cl)cc1 (racemic) [Example 36, rac-3-(2'-Buten-1',4'-olido)-[3',4':3,2]-1-(4-chlorobenzoyl)-5-methoxy-2-methyl-2,3-dihydroindole]
- SELECTIVITY INDEX (HT-29 IC50 / PGE2 IC50) ([1]; Table III): 25

- IC50 [1, 5]: 50 µM
Compound: C[C@@]12OC(=O)C[C@]1(SCC(=O)O)c1cc(F)ccc1/C2=C\c1ccc(S(C)(=O)=O)cc1 (relative stereo) [Example 31, rac-threo-(E)-1-(butan-1',4'-olido)-[3',4':1,2]-6-fluoro-2-methyl-3-(p-methylsulfonylbenzylidene)-1S-indanyl-mercaptoacetic acid]

- IC50 [1, 5]: 29 µM
Compound: CCN(CC)CCS[C@]12CC(=O)O[C@@]1(C)N(C(=O)c1ccc(Cl)cc1)c1ccc(OC)cc12 (relative stereo) [Example 37, rac-threo-3-(Butan-1',4'-olido)-[3',4':3,2]-3-(N,N'-diethylaminoethanethio)-1-(4-chlorobenzoyl)-5-methoxy-2-methyl-2,3-dihydroindole]

Compound: CC1=C(CC(=O)O)c2cc(F)ccc2/C1=C\c1ccc(S(C)(=O)=O)cc1 [Sulfone, reference compound]
- inhibition of prostaglandin synthesis (in words) (prostaglandin synthesis): inactive as an inhibitor of prostaglandin synthesis
- SELECTIVITY INDEX (HT-29 IC50 / PGE2 IC50) ([1]; Table III): 1.19

Compound: CSc1ccc(/C=C2/C(C)=C(CC(=O)O)c3cc(F)ccc32)cc1 [Sulindac Sulfide, reference compound]
- side effects (in words) [3]: associated with the side effects of conventional NSAIDs
- anti-PG-synthetase / anti-prostaglandin activity (in words) [2]: high degree of anti-PG-synthetase activity
- inhibition at 10 µM ([2]; Homo sapiens, HL-60, read-out: inhibit PGE2 production): 100%
- inhibition of prostaglandin synthesis (in words) (prostaglandin synthesis): active moiety as a prostaglandin inhibitor
- anti-proliferative activity (in words) [1]: good anti-proliferative activity

Compound: CC1=C(CC(=O)O)c2cc(F)ccc2/C1=C\c1ccc([S+](C)[O-])cc1 (centres unmarked) [Sulindac]
- effect on polyps (in words) (polyps): Polyps virtually disappear
- metabolism (in words) [4]: converted by liver enzymes to the corresponding sulfide; also recorded: metabolized to sulfone compound

- IC50 [2]: 1.5 µM
- IC50 [1, 7]: 2.4 µM
- IC50 [1, 8]: 2.4 µM
Compound: rac-ribo-(E)-1-Triazolo-[2',3':1",3"]-1-(butan-1',4'-olido)-[3',4':1,2]-6-fluoro-2-methyl-3-(methylsulfonylbenzylidene)-indan [Example 29]
- SELECTIVITY INDEX (HT-29 IC50 / PGE2 IC50) ([1]; Table III): 1.6

- IC50 [2]: > 100 µM
- IC50 [1, 7]: 3.6 µM
- IC50 [1, 8]: 3.6 µM
Compound: rac-threo-(E)-1-(butan-1',4'-olido)-[3',4':1,2]-6-fluoro-2-methyl-3-(p-methylsulfonylbenzylidene)-1S-indanyl-glutathione [Example 34]
- SELECTIVITY INDEX (HT-29 IC50 / PGE2 IC50) ([1]; Table III): < 0.036

- IC50 [2]: > 100 µM
- IC50 [1, 7]: 0.35 µM
- IC50 [1, 8]: 0.35 µM
Compound: rac-threo-(E)-1-N,N-Diethylamino-1-(butan-1',4'-olido)-[3',4':1,2]-6-fluoro-2-methyl-3-(p-methylsulfonylbenzylidene)-indan [Example 30]
- SELECTIVITY INDEX (HT-29 IC50 / PGE2 IC50) ([1]; Table III): < 0.0035
